Assay results: ChEMBL document CHEMBL2010748, “Structure-Activity Relationship Studies of HIV-1 Integrase Oligonucleotide Inhibitors” (ACS Med Chem Lett, 2011)

These molecules were tested against Human immunodeficiency virus type 1 integrase (Human immunodeficiency virus 1, UniProt Q7ZJM1) (assay: Inhibition of Human immunodeficiency virus 1 integrase 3'-processing activity expressed in Escherichia coli using 21-mer DNA and Mg2+ after 2 hrs by polyacrylamide gel electrophoresis).
Chain of Human immunodeficiency virus type 1 integrase (Q7ZJM1 whole entry): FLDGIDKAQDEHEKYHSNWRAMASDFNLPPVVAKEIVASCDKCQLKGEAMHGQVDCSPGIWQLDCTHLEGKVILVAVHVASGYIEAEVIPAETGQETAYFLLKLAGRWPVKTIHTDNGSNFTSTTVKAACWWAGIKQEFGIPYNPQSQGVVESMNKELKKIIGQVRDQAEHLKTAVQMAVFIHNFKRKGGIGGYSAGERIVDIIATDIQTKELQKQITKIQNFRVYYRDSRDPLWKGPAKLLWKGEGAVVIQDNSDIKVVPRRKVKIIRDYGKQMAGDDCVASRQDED

Compound | IC50 [nM]
COc1cc2c(-c3cc(C(=O)NCCCCCCOP(=O)(O)OC[C@H]4O[C@@H](n5cnc6c(=O)[nH]c(N)nc65)C[C@@H]4OP(=O)(O)OC[C@H]4O[C@@H](n5cnc6c(=O)[nH]c(N)nc65)C[C@@H]4OP(=O)(O)OC[C@H]4O[C@@H](n5cc(C)c(=O)[nH]c5=O)C[C@@H]4OP(=O)(O)OC[C@H]4O[C@@H](n5cc(C)c(=O)[nH]c5=O)C[C@@H]4OP(=O)(O)OC[C@H]4O[C@@H](n5cc(C)c(=O)[nH]c5=O)C[C@@H]4OP(=O)(O)OC[C@H]4O[C@@H](n5cc(C)c(=O)[nH]c5=O)C[C@@H]4OP(=O)(O)OC[C@H]4O[C@@H](n5cc(C)c(=O)[nH]c5=O)C[C@@H]4OP(=O)(O)OC[C@H]4O[C@@H](n5cnc6c(=O)[nH]c(N)nc65)C[C@@H]4OP(=O)(O)OC[C@H]4O[C@@H](n5cc(C)c(=O)[nH]c5=O)C[C@@H]4OP(=O)(O)OC[C@H]4O[C@@H](n5cnc6c(=O)[nH]c(N)nc65)C[C@@H]4OP(=O)(O)OC[C@H]4O[C@@H](n5cc(C)c(=O)[nH]c5=O)C[C@@H]4O)ccc3C(=O)O)c3cc(OC)c(=O)c(Cl)c-3oc2c(Cl)c1O | 310
CCCCCCCC/C=C\CCCCCCCC(=O)NCCCOCC(O)COP(=O)(O)O[C@H]1C[C@H](n2cc(C)c(=O)[nH]c2=O)O[C@@H]1COP(=O)(O)O[C@H]1C[C@H](n2cnc3c(=O)[nH]c(N)nc32)O[C@@H]1COP(=O)(O)O[C@H]1C[C@H](n2cc(C)c(=O)[nH]c2=O)O[C@@H]1COP(=O)(O)O[C@H]1C[C@H](n2cnc3c(=O)[nH]c(N)nc32)O[C@@H]1COP(=O)(O)O[C@H]1C[C@H](n2cc(C)c(=O)[nH]c2=O)O[C@@H]1COP(=O)(O)O[C@H]1C[C@H](n2cc(C)c(=O)[nH]c2=O)O[C@@H]1COP(=O)(O)O[C@H]1C[C@H](n2cc(C)c(=O)[nH]c2=O)O[C@@H]1COP(=O)(O)O[C@H]1C[C@H](n2cc(C)c(=O)[nH]c2=O)O[C@@H]1COP(=O)(O)O[C@H]1C[C@H](n2cc(C)c(=O)[nH]c2=O)O[C@@H]1COP(=O)(O)O[C@H]1C[C@H](n2cnc3c(=O)[nH]c(N)nc32)O[C@@H]1COP(=O)(O)O[C@H]1C[C@H](n2cnc3c(=O)[nH]c(N)nc32)O[C@@H]1CO (stereo not given in full) | 200
Cc1cn([C@H]2C[C@H](OP(=O)(O)OC[C@H]3O[C@@H](n4cc(C)c(=O)[nH]c4=O)C[C@@H]3OP(=O)(S)OC[C@H]3O[C@@H](n4cc(C)c(=O)[nH]c4=O)C[C@@H]3OP(=O)(O)OC[C@H]3O[C@@H](n4cnc5c(=O)[nH]c(N)nc54)C[C@@H]3OP(=O)(O)OC[C@H]3O[C@@H](n4cc(C)c(=O)[nH]c4=O)C[C@@H]3OP(=O)(S)OC[C@H]3O[C@@H](n4cnc5c(=O)[nH]c(N)nc54)C[C@@H]3OP(=O)(O)OC[C@H]3O[C@@H](n4cc(C)c(=O)[nH]c4=O)C[C@@H]3OP(=O)(O)OCCCCCCNC(=S)Nc3ccc(-c4c5cc(Br)c(=O)c(Br)c-5oc5c(Br)c(O)c(Br)cc45)c(C(=O)O)c3)[C@@H](COP(=O)(O)O[C@H]3C[C@H](n4cc(C)c(=O)[nH]c4=O)O[C@@H]3COP(=O)(S)O[C@H]3C[C@H](n4cc(C)c(=O)[nH]c4=O)O[C@@H]3COP(=O)(O)O[C@H]3C[C@H](n4cnc5c(=O)[nH]c(N)nc54)O[C@@H]3COP(=O)(O)O[C@H]3C[C@H](n4cnc5c(=O)[nH]c(N)nc54)O[C@@H]3CO)O2)c(=O)[nH]c1=O (stereo not given in full) | 24
Cc1cn([C@H]2C[C@H](O)[C@@H](COP(=O)(O)O[C@H]3CCO[C@@H]3COP(=O)(O)O[C@H]3CCO[C@@H]3COP(=O)(O)O[C@H]3CCO[C@@H]3COP(=O)(O)O[C@H]3CCO[C@@H]3COP(=O)(O)O[C@H]3CCO[C@@H]3COP(=O)(O)O[C@H]3CCO[C@@H]3COP(=O)(O)O[C@H]3CCO[C@@H]3COP(=O)(O)O[C@H]3CCO[C@@H]3COP(=O)(O)O[C@H]3CCO[C@@H]3COP(=O)(O)O[C@H]3CCO[C@@H]3COP(=O)(O)OCCCCCCNC(=O)c3cc(Cl)c(C(=O)O)c(-c4c5cc(Cl)c(=O)c(Cl)c-5oc5c(Cl)c(O)c(Cl)cc45)c3Cl)O2)c(=O)[nH]c1=O | 1200
Cc1cn([C@H]2C[C@H](OP(=O)(O)OC[C@H]3O[C@@H](n4cnc5c(=O)[nH]c(N)nc54)C[C@@H]3OP(=O)(O)OC[C@H]3O[C@@H](n4cc(C)c(=O)[nH]c4=O)C[C@@H]3OP(=O)(O)OC[C@H]3O[C@@H](n4cnc5c(=O)[nH]c(N)nc54)C[C@@H]3OP(=O)(O)OC[C@H]3O[C@@H](n4cc(C)c(=O)[nH]c4=O)C[C@@H]3O)[C@@H](COP(=O)(O)O[C@H]3CCO[C@@H]3COP(=O)(O)O[C@H]3CCO[C@@H]3COP(=O)(O)O[C@H]3CCO[C@@H]3COP(=O)(O)O[C@H]3CCO[C@@H]3COP(=O)(O)O[C@H]3CCO[C@@H]3COP(=O)(O)O[C@H]3CCO[C@@H]3COP(=O)(O)OCCCCCCNC(=O)c3cc(Cl)c(C(=O)O)c(-c4c5cc(Cl)c(=O)c(Cl)c-5oc5c(Cl)c(O)c(Cl)cc45)c3Cl)O2)c(=O)[nH]c1=O | 280

These reach a lower IC50. Values come first.

IC50 [nM] | Compound
23 | CCCCCCCC/C=C\CCCCCCCC(=O)NCCCOCC(O)COP(=O)(O)O[C@@H]1C[C@@H](COP(=O)(O)O[C@H]2C[C@H](n3cc(C)c(=O)[nH]c3=O)O[C@@H]2COP(=O)(O)O[C@H]2C[C@H](n3cnc4c(=O)[nH]c(N)nc43)O[C@@H]2COP(=O)(O)O[C@H]2C[C@H](n3cc(C)c(=O)[nH]c3=O)O[C@@H]2COP(=O)(O)O[C@H]2C[C@H](n3cnc4c(=O)[nH]c(N)nc43)O[C@@H]2COP(=O)(O)O[C@H]2C[C@H](n3cc(C)c(=O)[nH]c3=O)O[C@@H]2COP(=O)(O)O[C@H]2C[C@H](n3cc(C)c(=O)[nH]c3=O)O[C@@H]2COP(=O)(O)O[C@H]2C[C@H](n3cc(C)c(=O)[nH]c3=O)O[C@@H]2COP(=O)(O)O[C@H]2C[C@H](n3cc(C)c(=O)[nH]c3=O)O[C@@H]2COP(=O)(O)O[C@H]2C[C@H](n3cc(C)c(=O)[nH]c3=O)O[C@@H]2COP(=O)(O)O[C@H]2C[C@H](n3cnc4c(=O)[nH]c(N)nc43)O[C@@H]2COP(=O)(O)O[C@H]2C[C@H](n3cnc4c(=O)[nH]c(N)nc43)O[C@@H]2CO)N(C(=O)CCCCCNC(=O)c2ccc(C(=O)O)c(-c3c4ccc(=O)cc-4oc4cc(O)ccc34)c2)C1 (stereo not given in full)
22 | Cc1cn([C@H]2C[C@H](OP(=O)(O)OC[C@H]3O[C@@H](n4cnc5c(=O)[nH]c(N)nc54)C[C@@H]3OP(=O)(O)OC[C@H]3O[C@@H](n4cc(C)c(=O)[nH]c4=O)C[C@@H]3OP(=O)(O)OC[C@H]3O[C@@H](n4cnc5c(=O)[nH]c(N)nc54)C[C@@H]3OP(=O)(O)OC[C@H]3O[C@@H](n4cc(C)c(=O)[nH]c4=O)C[C@@H]3OP(=O)(O)OCCCCCCNC(=S)Nc3ccc(-c4c5cc(Br)c(=O)c(Br)c-5oc5c(Br)c(O)c(Br)cc45)c(C(=O)O)c3)[C@@H](COP(=O)(O)O[C@H]3C[C@H](n4cc(C)c(=O)[nH]c4=O)O[C@@H]3COP(=O)(S)O[C@H]3C[C@H](n4cc(C)c(=O)[nH]c4=O)O[C@@H]3COP(=O)(S)O[C@H]3C[C@H](n4cc(C)c(=O)[nH]c4=O)O[C@@H]3COP(=O)(S)O[C@H]3C[C@H](n4cc(C)c(=O)[nH]c4=O)O[C@@H]3COP(=O)(O)O[C@H]3C[C@H](n4cnc5c(=O)[nH]c(N)nc54)O[C@@H]3COP(=O)(O)O[C@H]3C[C@H](n4cnc5c(=O)[nH]c(N)nc54)O[C@@H]3CO)O2)c(=O)[nH]c1=O (stereo not given in full)
20 | CCCCCCCC/C=C\CCCCCCCC(=O)NCCCOCC(O)COP(=O)(O)O[C@H]1C[C@H](n2cc(C)c(=O)[nH]c2=O)O[C@@H]1COP(=O)(O)O[C@H]1C[C@H](n2cnc3c(=O)[nH]c(N)nc32)O[C@@H]1COP(=O)(O)O[C@H]1C[C@H](n2cc(C)c(=O)[nH]c2=O)O[C@@H]1COP(=O)(O)O[C@H]1C[C@H](n2cnc3c(=O)[nH]c(N)nc32)O[C@@H]1COP(=O)(O)O[C@H]1C[C@H](n2cc(C)c(=O)[nH]c2=O)O[C@@H]1COP(=O)(O)O[C@H]1C[C@H](n2cc(C)c(=O)[nH]c2=O)O[C@@H]1COP(=O)(O)O[C@H]1C[C@H](n2cc(C)c(=O)[nH]c2=O)O[C@@H]1COP(=O)(O)O[C@H]1C[C@H](n2cc(C)c(=O)[nH]c2=O)O[C@@H]1COP(=O)(O)O[C@H]1C[C@H](n2cc(C)c(=O)[nH]c2=O)O[C@@H]1COP(=O)(O)O[C@H]1C[C@H](n2cnc3c(=O)[nH]c(N)nc32)O[C@@H]1COP(=O)(O)O[C@H]1C[C@H](n2cnc3c(=O)[nH]c(N)nc32)O[C@@H]1COP(=O)(O)O[C@@H]1C[C@@H](CO)N(C(=O)CCCCCNC(=O)c2ccc(C(=O)O)c(-c3c4ccc(=O)cc-4oc4cc(O)ccc34)c2)C1 (stereo not given in full)
20 | Cc1cn([C@H]2C[C@H](OP(=O)(O)OC[C@H]3O[C@@H](n4cc(C)c(=O)[nH]c4=O)C[C@@H]3OP(=O)(O)OC[C@H]3O[C@@H](n4cc(C)c(=O)[nH]c4=O)C[C@@H]3OP(=O)(S)OC[C@H]3O[C@@H](n4cnc5c(=O)[nH]c(N)nc54)C[C@@H]3OP(=O)(O)OC[C@H]3O[C@@H](n4cc(C)c(=O)[nH]c4=O)C[C@@H]3OP(=O)(S)OC[C@H]3O[C@@H](n4cnc5c(=O)[nH]c(N)nc54)C[C@@H]3OP(=O)(O)OC[C@H]3O[C@@H](n4cc(C)c(=O)[nH]c4=O)C[C@@H]3OP(=O)(S)OCCCCCCNC(=S)Nc3ccc(-c4c5cc(Br)c(=O)c(Br)c-5oc5c(Br)c(O)c(Br)cc45)c(C(=O)O)c3)[C@@H](COP(=O)(O)O[C@H]3C[C@H](n4cc(C)c(=O)[nH]c4=O)O[C@@H]3COP(=O)(O)O[C@H]3C[C@H](n4cc(C)c(=O)[nH]c4=O)O[C@@H]3COP(=O)(O)O[C@H]3C[C@H](n4cnc5c(=O)[nH]c(N)nc54)O[C@@H]3COP(=O)(O)O[C@H]3C[C@H](n4cnc5c(=O)[nH]c(N)nc54)O[C@@H]3CO)O2)c(=O)[nH]c1=O (stereo not given in full)
18 | Cc1cn([C@H]2C[C@H](OP(=O)(S)OC[C@H]3O[C@@H](n4cc(C)c(=O)[nH]c4=O)C[C@@H]3OP(=O)(S)OC[C@H]3O[C@@H](n4cc(C)c(=O)[nH]c4=O)C[C@@H]3OP(=O)(S)OC[C@H]3O[C@@H](n4cnc5c(=O)[nH]c(N)nc54)C[C@@H]3OP(=O)(S)OC[C@H]3O[C@@H](n4cc(C)c(=O)[nH]c4=O)C[C@@H]3OP(=O)(S)OC[C@H]3O[C@@H](n4cnc5c(=O)[nH]c(N)nc54)C[C@@H]3OP(=O)(S)OC[C@H]3O[C@@H](n4cc(C)c(=O)[nH]c4=O)C[C@@H]3OP(=O)(S)OCCCCCCNC(=S)Nc3ccc(-c4c5cc(Br)c(=O)c(Br)c-5oc5c(Br)c(O)c(Br)cc45)c(C(=O)O)c3)[C@@H](COP(=O)(S)O[C@H]3C[C@H](n4cc(C)c(=O)[nH]c4=O)O[C@@H]3COP(=O)(S)O[C@H]3C[C@H](n4cc(C)c(=O)[nH]c4=O)O[C@@H]3COP(=O)(S)O[C@H]3C[C@H](n4cnc5c(=O)[nH]c(N)nc54)O[C@@H]3COP(=O)(S)O[C@H]3C[C@H](n4cnc5c(=O)[nH]c(N)nc54)O[C@@H]3CO)O2)c(=O)[nH]c1=O (stereo not given in full)
